For 5 compounds, Emax and EC50 results are on record in patent US20260176320A1, “MODULATORS OF G-PROTEIN COUPLED RECEPTORS” (priority 2018, published 2026).

Structures are written as SMILES. Like-named read-outs stand apart in the source and are kept apart here.

Type in all cases: cell-based
Assay [1] deals with T1, GLP-1R (Homo sapiens, UniProt P43220). Nature of the assay: HitHunter cAMP assay (GLP-1R). Conditions: cAMP; for Emax: read-out: (Emax) GLP-1R. Put shortly:
(§1)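 Suspension cells expressing each receptor (10,000 per well) in HBSS with 10 mM HEPES, 625 μM IBMX and 0.2% BSA were treated with a 22-point 2-fold agonist series in duplicate for 30 minutes at room temperature. cAMP was detected by antibody immunocompetition with luminescence read after overnight incubation.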
In general terms: Changes in cAMP serve as a functional read-out for many G protein-coupled receptors.

For assay [2], the target named is T1, GLP-1R. Nature of the assay: PathHunter β-arrestin assay. The method, boiled down:
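Cells seeded overnight, then medium replaced with medium containing 0.2% BSA; agonists added as 22-point 2-fold DMSO dilution series in duplicate and incubated 90 min at 37 °C, 5% CO2. After addition of detection solution, plates sat 3 h at room temperature in the dark; luminescence read.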

For a further assay, the target named is T2, GIP-R (Homo sapiens, UniProt P48546).
T2 sequence (P48546 22-466): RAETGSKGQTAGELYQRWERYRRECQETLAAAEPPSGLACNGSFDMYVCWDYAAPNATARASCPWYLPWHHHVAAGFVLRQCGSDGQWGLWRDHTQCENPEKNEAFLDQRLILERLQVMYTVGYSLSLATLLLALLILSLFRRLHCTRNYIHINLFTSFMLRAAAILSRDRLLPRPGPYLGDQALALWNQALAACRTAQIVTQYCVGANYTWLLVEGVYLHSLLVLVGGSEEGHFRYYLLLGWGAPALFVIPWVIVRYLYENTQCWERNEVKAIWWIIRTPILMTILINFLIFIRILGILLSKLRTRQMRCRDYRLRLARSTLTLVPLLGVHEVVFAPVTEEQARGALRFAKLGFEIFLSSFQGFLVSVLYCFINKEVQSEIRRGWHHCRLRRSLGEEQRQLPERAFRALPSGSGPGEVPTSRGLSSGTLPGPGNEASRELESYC
The experiment in a line: HitHunter cAMP assay (GIP-R). The following applies: cAMP; for Emax: read-out: (Emax) GIP-R. The method, boiled down: as §1

Setting [3] is: Table 3, read-out: EC50 GLP-1R/nM.
Setting [4] is: Table 3A, read-out: EC50 GLP-1R/nM.
Setting [5] is: PathHunter β-arrestin assay, read-out: β-arrestin activity EC50.
Where [6] appears, read: Table 3, read-out: EC50 GIP-R/nM.
Where [7] appears, read: Table 3A, read-out: EC50 GIP-R/nM.

T1 sequence (P43220 24-463): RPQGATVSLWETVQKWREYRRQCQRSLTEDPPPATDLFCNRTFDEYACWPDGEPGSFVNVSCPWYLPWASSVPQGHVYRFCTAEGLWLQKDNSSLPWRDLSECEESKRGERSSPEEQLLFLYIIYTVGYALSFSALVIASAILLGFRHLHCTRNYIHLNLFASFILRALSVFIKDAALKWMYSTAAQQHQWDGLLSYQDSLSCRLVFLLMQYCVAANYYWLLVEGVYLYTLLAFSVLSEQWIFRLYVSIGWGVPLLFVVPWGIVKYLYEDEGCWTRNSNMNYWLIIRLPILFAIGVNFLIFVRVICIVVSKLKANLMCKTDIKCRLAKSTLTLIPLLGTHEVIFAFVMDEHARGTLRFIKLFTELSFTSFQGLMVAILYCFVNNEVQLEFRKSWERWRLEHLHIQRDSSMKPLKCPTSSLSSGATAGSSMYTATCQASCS

On to `CC[C@H](C)[C@H](NC(=O)[C@H](CO)NC(=O)[C@H](Cc1ccc(O)cc1)NC(=O)[C@H](CC(=O)O)NC(=O)[C@H](CO)NC(=O)[C@@H](NC(=O)[C@H](Cc1ccccc1)NC(=O)[C@@H](NC(=O)CNC(=O)[C@H](CCC(=O)O)NC(=O)C[S+]([O-])CC(=O)NCCN1C(=O)CSC1=O)[C@@H](C)O)[C@@H](C)O)C(=O)N[C@@H](Cc1ccc(O)cc1)C(=O)N[C@@H](CC(C)C)C(=O)N[C@@H](CC(=O)O)C(=O)N[C@@H](CCCCN)C(=O)N[C@@H](CCC(N)=O)C(=O)N[C@@H](C)C(=O)N[C@@H](C)C(=O)NC(C)(C)C(=O)N[C@@H](CCC(=O)O)C(=O)N[C@@H](Cc1ccccc1)C(=O)N[C@H](C(=O)N[C@@H](CC(N)=O)C(=O)N[C@@H](Cc1c[nH]c2ccccc12)C(=O)N[C@@H](CC(C)C)C(=O)N[C@@H](CC(C)C)C(=O)N[C@@H](C)C(=O)NCC(=O)NCC(=O)N1CCC[C@H]1C(=O)N[C@@H](CO)C(=O)N[C@@H](CO)C(=O)NCC(=O)N[C@@H](C)C(=O)N1CCC[C@H]1C(=O)N1CCC[C@H]1C(=O)N1CCC[C@H]1C(=O)N[C@@H](CO)C(=O)N[C@@H](CCCCN)C(N)=O)C(C)C` (stereo partly shown) [Compound 170], for which the Emax at GLP-1R [1] (Table 3) and at GLP-1R [1] (Table 3A) was 99% each time. In addition, the EC50 on GLP-1R [1] (setting [3]) was 1 to 10 nM; on GLP-1R [1] (setting [4]), 1 to 10 nM; at GLP-1R [2] (setting [5]), over 1000 nM; at GIP-R (setting [6]), over 1000 nM; at GIP-R (setting [7]), over 1000 nM. The Emax at 1 µM on GIP-R (read-out: (Emax) GIP-R at 1 μM, Table 3, at 1 μM) lay within 5 to 8%.

Take `CC[C@H](C)[C@H](NC(=O)[C@H](CO)NC(=O)[C@H](Cc1ccc(O)cc1)NC(=O)[C@H](CC(=O)O)NC(=O)[C@H](CO)NC(=O)[C@@H](NC(=O)[C@H](Cc1ccccc1)NC(=O)[C@@H](NC(=O)CNC(=O)[C@H](CCC(=O)O)NC(=O)CCNC(=O)NCCN1C(=O)CSC1=O)[C@@H](C)O)[C@@H](C)O)C(=O)N[C@@H](Cc1ccc(O)cc1)C(=O)N[C@@H](CC(C)C)C(=O)N[C@@H](CC(=O)O)C(=O)N[C@@H](CCCCN)C(=O)N[C@@H](CCC(N)=O)C(=O)N[C@@H](C)C(=O)N[C@@H](C)C(=O)NC(C)(C)C(=O)N[C@@H](CCC(=O)O)C(=O)N[C@@H](Cc1ccccc1)C(=O)N[C@H](C(=O)N[C@@H](CC(N)=O)C(=O)N[C@@H](Cc1c[nH]c2ccccc12)C(=O)N[C@@H](CC(C)C)C(=O)N[C@@H](CC(C)C)C(=O)N[C@@H](C)C(=O)NCC(=O)NCC(=O)N1CCC[C@H]1C(=O)N[C@@H](CO)C(=O)N[C@@H](CO)C(=O)NCC(=O)N[C@@H](C)C(=O)N1CCC[C@H]1C(=O)N1CCC[C@H]1C(=O)N1CCC[C@H]1C(=O)N[C@@H](CO)C(=O)N[C@@H](CCCCN)C(N)=O)C(C)C` [Compound 148]: the Emax was 99% at GLP-1R [1] (Table 3), 99% on GLP-1R [1] (Table 3A), 64 to 67% at GIP-R (Table 3) and 64 to 67% at GIP-R (Table 3A). In addition, the EC50 on GLP-1R [1] (setting [3]) is 0.1 to 1 nM; at GLP-1R [1] (setting [4]), 0.1 to 1 nM; at GLP-1R [2] (setting [5]), over 1000 nM; on GIP-R (setting [6]), 1 to 10 nM; on GIP-R (setting [7]), 1 to 10 nM.

Turning to `CCCCCCCCCCCCCCCC(=O)N[C@@H](CCC(=O)NCCCC[C@H](NC(=O)[C@H](CO)NC(=O)[C@@H]1CCCN1C(=O)[C@@H]1CCCN1C(=O)[C@@H]1CCCN1C(=O)[C@H](C)NC(=O)CNC(=O)[C@H](CO)NC(=O)[C@H](CO)NC(=O)[C@@H]1CCCN1C(=O)CNC(=O)CNC(=O)[C@H](C)NC(=O)[C@H](CC(C)C)NC(=O)[C@H](CC(C)C)NC(=O)[C@H](Cc1c[nH]c2ccccc12)NC(=O)[C@H](CC(N)=O)NC(=O)[C@@H](NC(=O)[C@H](Cc1ccccc1)NC(=O)[C@H](CCC(=O)O)NC(=O)C(C)(C)NC(=O)[C@H](C)NC(=O)[C@H](C)NC(=O)[C@H](CCC(N)=O)NC(=O)[C@H](CCCCN)NC(=O)[C@H](CC(=O)O)NC(=O)[C@H](CC(C)C)NC(=O)[C@H](Cc1ccc(O)cc1)NC(=O)[C@@H](NC(=O)[C@H](CO)NC(=O)[C@H](Cc1ccc(O)cc1)NC(=O)[C@H](CC(=O)O)NC(=O)[C@H](CO)NC(=O)[C@@H](NC(=O)[C@H](Cc1ccccc1)NC(=O)[C@@H](NC(=O)CNC(=O)[C@H](CCC(=O)O)NC(=O)CSCC(=O)NCCN1C(=O)[C@H]2CC[C@H]2C1=O)[C@@H](C)O)[C@@H](C)O)[C@@H](C)CC)C(C)C)C(N)=O)C(=O)O` [Compound 97], the EC50 is 1 to 10 nM on GLP-1R [1] (EC50 GLP-1R/nM, Table 3); 1 to 10 nM at GLP-1R [1] (EC50 GLP-1R/nM, Table 3A); over 1000 nM at GLP-1R [2]; 0.1 to 1 nM on GIP-R (EC50 GIP-R/nM, Table 3); 0.1 to 1 nM on GIP-R (EC50 GIP-R/nM, Table 3A). For the same compound, the Emax at GLP-1R [1] (Table 3) was found to be 99%; at GLP-1R [1] (Table 3A) it was 99%; at GIP-R (Table 3) it was 93%; at GIP-R (Table 3A) it was 93%.

Take `CCCCCCCCCCCCCCCC(=O)N[C@@H](CCC(=O)NCCCC[C@H](NC(=O)[C@H](CO)NC(=O)[C@@H]1CCCN1C(=O)[C@@H]1CCCN1C(=O)[C@@H]1CCCN1C(=O)[C@H](C)NC(=O)CNC(=O)[C@H](CO)NC(=O)[C@H](CO)NC(=O)[C@@H]1CCCN1C(=O)CNC(=O)CNC(=O)[C@H](C)NC(=O)[C@H](CC(C)C)NC(=O)[C@H](CC(C)C)NC(=O)[C@H](Cc1c[nH]c2ccccc12)NC(=O)[C@H](CC(N)=O)NC(=O)[C@@H](NC(=O)[C@H](Cc1ccccc1)NC(=O)[C@H](CCC(=O)O)NC(=O)C(C)(C)NC(=O)[C@H](C)NC(=O)[C@H](C)NC(=O)[C@H](CCC(N)=O)NC(=O)[C@H](CCCCN)NC(=O)[C@H](CC(=O)O)NC(=O)[C@H](CC(C)C)NC(=O)[C@H](Cc1ccc(O)cc1)NC(=O)[C@@H](NC(=O)[C@H](CO)NC(=O)[C@H](Cc1ccc(O)cc1)NC(=O)[C@H](CC(=O)O)NC(=O)[C@H](CO)NC(=O)[C@@H](NC(=O)[C@H](Cc1ccccc1)NC(=O)[C@@H](NC(=O)CNC(=O)[C@H](CCC(=O)O)NC(=O)CSCC(=O)NCCn1cccc(C)c1=O)[C@@H](C)O)[C@@H](C)O)[C@@H](C)CC)C(C)C)C(N)=O)C(=O)O` [Compound 232]: the EC50 on GLP-1R [1] (EC50 GLP-1R/nM, Table 3A) is 0.1 to 1 nM; at GLP-1R [2], over 1000 nM; at GIP-R (EC50 GIP-R/nM, Table 3A), 1 to 10 nM. For the same compound, the figures for the Emax at GLP-1R [1] (Table 3A) and on GIP-R (Table 3A) were 95% and 78%, respectively.

Regarding `CC[C@H](C)[C@H](NC(=O)[C@H](CO)NC(=O)[C@H](Cc1ccc(O)cc1)NC(=O)[C@H](CC(=O)O)NC(=O)[C@H](CO)NC(=O)[C@@H](NC(=O)[C@H](Cc1ccccc1)NC(=O)[C@@H](NC(=O)CNC(=O)[C@H](CCC(=O)O)NC(=O)CCCC(=O)NCCN1C(=O)CSC1=O)[C@@H](C)O)[C@@H](C)O)C(=O)N[C@@H](Cc1ccc(O)cc1)C(=O)N[C@@H](CC(C)C)C(=O)N[C@@H](CC(=O)O)C(=O)N[C@@H](CCCCN)C(=O)N[C@@H](CCC(N)=O)C(=O)N[C@@H](C)C(=O)N[C@@H](C)C(=O)NC(C)(C)C(=O)N[C@@H](CCC(=O)O)C(=O)N[C@@H](Cc1ccccc1)C(=O)N[C@H](C(=O)N[C@@H](CC(N)=O)C(=O)N[C@@H](Cc1c[nH]c2ccccc12)C(=O)N[C@@H](CC(C)C)C(=O)N[C@@H](CC(C)C)C(=O)N[C@@H](C)C(=O)NCC(=O)NCC(=O)N1CCC[C@H]1C(=O)N[C@@H](CO)C(=O)N[C@@H](CO)C(=O)NCC(=O)N[C@@H](C)C(=O)N1CCC[C@H]1C(=O)N1CCC[C@H]1C(=O)N1CCC[C@H]1C(=O)N[C@@H](CO)C(=O)N[C@@H](CCCCN)C(N)=O)C(C)C` [Compound 193], the maximal effect (Emax) on GLP-1R [1] (Table 3) is 117%; at GLP-1R [1] (Table 3A), 117%; on GIP-R (Table 3), 44%; at GIP-R (Table 3A) it was 44%. Moreover, the EC50 was 1 to 10 nM on GLP-1R [1] (setting [3]); 1 to 10 nM at GLP-1R [1] (setting [4]); over 1000 nM at GLP-1R [2] (setting [5]); 10 to 100 nM at GIP-R (setting [6]); 10 to 100 nM on GIP-R (setting [7]).

A word on the Emax: it is the greatest response seen or fitted, relative to the assay's reference.
